Measurements reported in patent US20230406885A1, “CYCLIC PEPTIDES FOR TRAPPING INTERLEUKIN-1 BETA” (MERCK SHARP & DOHME LLC, priority 2022, published 2023).
*1 amine or outer side, *2 acyl side, *3 side chain or, on linkers, in order; H or OH if unused. Where a SMILES comes first, the peptide text is derived from it. [ ]: non-standard residue; d: D form. Ala(piperidin-4-yl) = O=C([C@H](CC1CCN([*:3])CC1)N[*:1])[*:2]; Trp(βS-Me,4-F) = C[C@@H](c1c[nH]c2cccc(F)c12)[C@H](N)C(=O)O; Bip(4'-COOH) = N[C@@H](Cc1ccc(-c2ccc(C(=O)O)cc2)cc1)C(=O)O; Phe(4-COOH) = N[C@@H](Cc1ccc(C(=O)O)cc1)C(=O)O; h3Pal(5-CN) = N#Cc1cncc(CC[C@H](N)C(=O)O)c1; Pro(4R-NH2) = N[C@H]1CN[C@H](C(=O)O)C1; X7 = O=C([C@H](CCN1CCOCC1)N[*:1])[*:2]; AEF = NCCOc1ccc(C[C@H](N)C(=O)O)cc1; hTyr = N[C@@H](CCc1ccc(O)cc1)C(=O)O; hPhe = N[C@@H](CCc1ccccc1)C(=O)O; 4Pal = N[C@@H](Cc1ccncc1)C(=O)O; dOrn = NCCC[C@@H](N)C(=O)O; dDab = NCC[C@@H](N)C(=O)O; dNMeA = CN[C@H](C)C(=O)O; Dab = NCC[C@H](N)C(=O)O; Nva = CCC[C@H](N)C(=O)O

Target: T1, Recombinant human IL-1β (Homo sapiens, UniProt P01584)
T1 construct: purchased BioLegend 579404
T1 sequence (P01584 117-269): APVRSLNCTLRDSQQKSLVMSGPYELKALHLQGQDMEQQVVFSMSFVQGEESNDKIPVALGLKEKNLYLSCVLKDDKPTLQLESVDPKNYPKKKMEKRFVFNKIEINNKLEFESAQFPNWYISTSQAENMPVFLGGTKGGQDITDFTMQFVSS
Experiment: IL-6 assay in MRC5 cells: inhibition of IL-1β induced IL-6 secretion (AlphaLISA)
Assay type: cell-based
Details: not given
In short: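 IL-1β at 2×EC80 in seeding medium (EMEM, 0.025% BSA) preincubated 1 h at ambient temperature with compound, then 3000 MRC5 cells/well added and incubated overnight at 37 °C, 5% CO2. IL-6 in conditioned medium quantified by AlphaLISA; IC50 from 4-parameter logistic fit.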

SMILES	IC50 [nM]
CC(=O)NCCOc1ccc(C[C@@H]2NC(=O)[C@H](Cc3ccc(OCCN)cc3)NC(=O)[C@@H](C)NC(=O)[C@H](CC(C)C)NC(=O)[C@H](Cc3c[nH]c4ccccc34)NC(=O)[C@H](Cc3ccc(-c4ccc(C(=O)O)cc4)cc3)NC(=O)CNC(=O)[C@@H](C)N(C)C(=O)[C@H](CC(=O)O)NC(=O)[C@H]([C@@H](C)c3c[nH]c4cccc(F)c34)NC(=O)[C@@H]3C[C@@H](N)CN3C(=O)CNC(=O)[C@H](Cc3ccc(C(=O)O)cc3)NC(=O)[C@H](Cc3c[nH]c4ccccc34)NC2=O)cc1 [Example 164] (cyclo([AEF][AEF](Ac)W[Phe(4-COOH)]G[Pro(4R-NH2)][Trp(βS-Me,4-F)]D[dNMeA]G[Bip(4'-COOH)]WL[dA]))	0.459

Same assay, conditions: inhibition of IL-1β induced IL-6 secretion in MRC5 cells; read-out: MRC5 IC50

SMILES	IC50 [nM]
CCC[C@@H]1NC(=O)[C@H](Cc2ccncc2)NC(=O)[C@H](Cc2ccc(-c3ccc(C(=O)O)cc3)cc2)NC(=O)CNC(=O)[C@@H](C)N(C)C(=O)[C@H](CC(=O)O)NC(=O)[C@H]([C@@H](C)c2c[nH]c3cccc(F)c23)NC(=O)[C@@H]2C[C@@H](N)CN2C(=O)CNC(=O)[C@H](Cc2ccc(C(=O)O)cc2)NC(=O)[C@H](Cc2c[nH]c3ccccc23)NC(=O)[C@H](Cc2ccc(OCCNC(C)=O)cc2)NC(=O)[C@H](CCc2ccc(O)cc2)NC(=O)[C@@H](C)NC1=O [Example 157] (cyclo([AEF](Ac)W[Phe(4-COOH)]G[Pro(4R-NH2)][Trp(βS-Me,4-F)]D[dNMeA]G[Bip(4'-COOH)][4Pal][Nva][dA][hTyr]))	0.403
CC(=O)NCCOc1ccc(C[C@@H]2NC(=O)[C@H](CCc3cncc(C#N)c3)NC(=O)[C@@H](C)NC(=O)[C@H](CC(C)C)NC(=O)[C@H](CCCCN)NC(=O)[C@H](Cc3ccc(-c4ccc(C(=O)O)cc4)cc3)NC(=O)CNC(=O)[C@@H](C)N(C)C(=O)[C@H](CC(=O)O)NC(=O)[C@H]([C@@H](C)c3c[nH]c4cccc(F)c34)NC(=O)[C@@H]3C[C@@H](N)CN3C(=O)CNC(=O)[C@H](Cc3ccc(C(=O)O)cc3)NC(=O)[C@H](Cc3c[nH]c4ccccc34)NC2=O)cc1 [Example 158] (cyclo([AEF](Ac)W[Phe(4-COOH)]G[Pro(4R-NH2)][Trp(βS-Me,4-F)]D[dNMeA]G[Bip(4'-COOH)]KL[dA][h3Pal(5-CN)]))	0.0257
CC(=O)NCCOc1ccc(C[C@@H]2NC(=O)[C@H](CCc3ccc(O)cc3)NC(=O)[C@@H](C)NC(=O)[C@H](CC(C)C)NC(=O)[C@H](CCCCN)NC(=O)[C@H](Cc3ccc(-c4ccc(C(=O)O)cc4)cc3)NC(=O)CNC(=O)[C@@H](C)N(C)C(=O)[C@H](CC(=O)O)NC(=O)[C@H]([C@@H](C)c3c[nH]c4cccc(F)c34)NC(=O)[C@@H]3C[C@@H](N)CN3C(=O)CNC(=O)[C@H](Cc3ccc(C(=O)O)cc3)NC(=O)[C@H](Cc3c[nH]c4ccccc34)NC2=O)cc1 [Example 159] (cyclo([AEF](Ac)W[Phe(4-COOH)]G[Pro(4R-NH2)][Trp(βS-Me,4-F)]D[dNMeA]G[Bip(4'-COOH)]KL[dA][hTyr]))	0.118
CC(=O)NCCOc1ccc(C[C@@H]2NC(=O)[C@H](CCc3ccc(O)cc3)NC(=O)[C@@H](CCN)NC(=O)[C@H](CC(C)C)NC(=O)[C@H](CCCCN)NC(=O)[C@H](Cc3ccc(-c4ccc(C(=O)O)cc4)cc3)NC(=O)CNC(=O)[C@@H](C)N(C)C(=O)[C@H](CC(=O)O)NC(=O)[C@H]([C@@H](C)c3c[nH]c4cccc(F)c34)NC(=O)[C@@H]3C[C@@H](N)CN3C(=O)CNC(=O)[C@H](Cc3ccc(C(=O)O)cc3)NC(=O)[C@H](Cc3c[nH]c4ccccc34)NC2=O)cc1 [Example 160] (cyclo([AEF](Ac)W[Phe(4-COOH)]G[Pro(4R-NH2)][Trp(βS-Me,4-F)]D[dNMeA]G[Bip(4'-COOH)]KL[dDab][hTyr]))	0.522
CC(=O)NCCOc1ccc(C[C@@H]2NC(=O)[C@H](CCc3ccc(O)cc3)NC(=O)[C@@H](CO)NC(=O)[C@H](CC(C)C)NC(=O)[C@H](CCCCN)NC(=O)[C@H](Cc3ccc(-c4ccc(C(=O)O)cc4)cc3)NC(=O)CNC(=O)[C@@H](C)N(C)C(=O)[C@H](CC(=O)O)NC(=O)[C@H]([C@@H](C)c3c[nH]c4cccc(F)c34)NC(=O)[C@@H]3C[C@@H](N)CN3C(=O)CNC(=O)[C@H](Cc3ccc(C(=O)O)cc3)NC(=O)[C@H](Cc3c[nH]c4ccccc34)NC2=O)cc1 [Example 161] (cyclo([AEF](Ac)W[Phe(4-COOH)]G[Pro(4R-NH2)][Trp(βS-Me,4-F)]D[dNMeA]G[Bip(4'-COOH)]KL[dS][hTyr]))	0.483
CC(=O)NCCOc1ccc(C[C@@H]2NC(=O)CNC(=O)[C@@H](C)NC(=O)[C@H](CCN3CCOCC3)NC(=O)[C@H](Cc3c[nH]c4ccccc34)NC(=O)[C@H](Cc3ccc(-c4ccc(C(=O)O)cc4)cc3)NC(=O)CNC(=O)[C@@H](C)N(C)C(=O)[C@H](CC(=O)O)NC(=O)[C@H]([C@@H](C)c3c[nH]c4cccc(F)c34)NC(=O)[C@@H]3C[C@@H](N)CN3C(=O)CNC(=O)[C@H](Cc3ccc(C(=O)O)cc3)NC(=O)[C@H](Cc3c[nH]c4ccccc34)NC2=O)cc1 [Example 162] (cyclo([AEF](Ac)W[Phe(4-COOH)]G[Pro(4R-NH2)][Trp(βS-Me,4-F)]D[dNMeA]G[Bip(4'-COOH)]W[X7][dA]G))	0.749
CC(=O)NCCOc1ccc(C[C@@H]2NC(=O)[C@H](CCc3ccccc3)NC(=O)[C@@H](C)NC(=O)[C@H](CCN)NC(=O)[C@H](Cc3c[nH]c4ccccc34)NC(=O)[C@H](Cc3ccc(-c4ccc(C(=O)O)cc4)cc3)NC(=O)CNC(=O)[C@@H](C)N(C)C(=O)[C@H](CC(=O)O)NC(=O)[C@H]([C@@H](C)c3c[nH]c4cccc(F)c34)NC(=O)[C@@H]3C[C@@H](N)CN3C(=O)CNC(=O)[C@H](Cc3ccc(C(=O)O)cc3)NC(=O)[C@H](Cc3c[nH]c4ccccc34)NC2=O)cc1 [Example 163] (cyclo([AEF](Ac)W[Phe(4-COOH)]G[Pro(4R-NH2)][Trp(βS-Me,4-F)]D[dNMeA]G[Bip(4'-COOH)]W[Dab][dA][hPhe]))	0.156

The next lines start with the values.

IC50 [nM]	SMILES
0.781	CC(=O)NCCOc1ccc(C[C@@H]2NC(=O)[C@H](CC3CCNCC3)NC(=O)[C@@H](C)NC(=O)[C@H](CC(C)C)NC(=O)[C@H](Cc3c[nH]c4ccccc34)NC(=O)[C@H](Cc3ccc(-c4ccc(C(=O)O)cc4)cc3)NC(=O)CNC(=O)[C@@H](C)N(C)C(=O)[C@H](CC(=O)O)NC(=O)[C@H]([C@@H](C)c3c[nH]c4cccc(F)c34)NC(=O)[C@@H]3C[C@@H](N)CN3C(=O)CNC(=O)[C@H](Cc3ccc(C(=O)O)cc3)NC(=O)[C@H](Cc3c[nH]c4ccccc34)NC2=O)cc1 [Example 165] (cyclo([AEF](Ac)W[Phe(4-COOH)]G[Pro(4R-NH2)][Trp(βS-Me,4-F)]D[dNMeA]G[Bip(4'-COOH)]WL[dA][Ala(piperidin-4-yl)]))
0.149	CC(=O)NCCOc1ccc(C[C@@H]2NC(=O)[C@H](CCc3ccccc3)NC(=O)[C@@H](C)NC(=O)[C@H](CC(C)C)NC(=O)[C@H](Cc3c[nH]c4ccccc34)NC(=O)[C@H](Cc3ccc(-c4ccc(C(=O)O)cc4)cc3)NC(=O)CNC(=O)[C@@H](C)N(C)C(=O)[C@H](CC(=O)O)NC(=O)[C@H]([C@@H](C)c3c[nH]c4cccc(F)c34)NC(=O)[C@@H]3C[C@@H](N)CN3C(=O)CNC(=O)[C@H](Cc3ccc(C(=O)O)cc3)NC(=O)[C@H](Cc3c[nH]c4ccccc34)NC2=O)cc1 [Example 166] (cyclo([AEF](Ac)W[Phe(4-COOH)]G[Pro(4R-NH2)][Trp(βS-Me,4-F)]D[dNMeA]G[Bip(4'-COOH)]WL[dA][hPhe]))
0.136	CC(=O)NCCOc1ccc(C[C@@H]2NC(=O)[C@H](CCc3ccc(O)cc3)NC(=O)[C@@H](C)NC(=O)[C@H](CC(C)C)NC(=O)[C@H](Cc3c[nH]c4ccccc34)NC(=O)[C@H](Cc3ccc(-c4ccc(C(=O)O)cc4)cc3)NC(=O)CNC(=O)[C@@H](C)N(C)C(=O)[C@H](CC(=O)O)NC(=O)[C@H]([C@@H](C)c3c[nH]c4cccc(F)c34)NC(=O)[C@@H]3C[C@@H](N)CN3C(=O)CNC(=O)[C@H](Cc3ccc(C(=O)O)cc3)NC(=O)[C@H](Cc3c[nH]c4ccccc34)NC2=O)cc1 [Example 167] (cyclo([AEF](Ac)W[Phe(4-COOH)]G[Pro(4R-NH2)][Trp(βS-Me,4-F)]D[dNMeA]G[Bip(4'-COOH)]WL[dA][hTyr]))
0.0847	CC(=O)NCCOc1ccc(C[C@@H]2NC(=O)[C@H](CCc3ccc(O)cc3)NC(=O)[C@@H](CCN)NC(=O)[C@H](CC(C)C)NC(=O)[C@H](Cc3c[nH]c4ccccc34)NC(=O)[C@H](Cc3ccc(-c4ccc(C(=O)O)cc4)cc3)NC(=O)CNC(=O)[C@@H](C)N(C)C(=O)[C@H](CC(=O)O)NC(=O)[C@H]([C@@H](C)c3c[nH]c4cccc(F)c34)NC(=O)[C@@H]3C[C@@H](N)CN3C(=O)CNC(=O)[C@H](Cc3ccc(C(=O)O)cc3)NC(=O)[C@H](Cc3c[nH]c4ccccc34)NC2=O)cc1 [Example 168] (cyclo([AEF](Ac)W[Phe(4-COOH)]G[Pro(4R-NH2)][Trp(βS-Me,4-F)]D[dNMeA]G[Bip(4'-COOH)]WL[dDab][hTyr]))
0.112	CC(=O)NCCOc1ccc(C[C@@H]2NC(=O)[C@H](CCc3ccc(O)cc3)NC(=O)[C@@H](CCCCN)NC(=O)[C@H](CC(C)C)NC(=O)[C@H](Cc3c[nH]c4ccccc34)NC(=O)[C@H](Cc3ccc(-c4ccc(C(=O)O)cc4)cc3)NC(=O)CNC(=O)[C@@H](C)N(C)C(=O)[C@H](CC(=O)O)NC(=O)[C@H]([C@@H](C)c3c[nH]c4cccc(F)c34)NC(=O)[C@@H]3C[C@@H](N)CN3C(=O)CNC(=O)[C@H](Cc3ccc(C(=O)O)cc3)NC(=O)[C@H](Cc3c[nH]c4ccccc34)NC2=O)cc1 [Example 169] (cyclo([AEF](Ac)W[Phe(4-COOH)]G[Pro(4R-NH2)][Trp(βS-Me,4-F)]D[dNMeA]G[Bip(4'-COOH)]WL[dK][hTyr]))
0.0966	CC(=O)NCCOc1ccc(C[C@@H]2NC(=O)[C@H](CCc3ccc(O)cc3)NC(=O)[C@@H](CCCN)NC(=O)[C@H](CC(C)C)NC(=O)[C@H](Cc3c[nH]c4ccccc34)NC(=O)[C@H](Cc3ccc(-c4ccc(C(=O)O)cc4)cc3)NC(=O)CNC(=O)[C@@H](C)N(C)C(=O)[C@H](CC(=O)O)NC(=O)[C@H]([C@@H](C)c3c[nH]c4cccc(F)c34)NC(=O)[C@@H]3C[C@@H](N)CN3C(=O)CNC(=O)[C@H](Cc3ccc(C(=O)O)cc3)NC(=O)[C@H](Cc3c[nH]c4ccccc34)NC2=O)cc1 [Example 170] (cyclo([AEF](Ac)W[Phe(4-COOH)]G[Pro(4R-NH2)][Trp(βS-Me,4-F)]D[dNMeA]G[Bip(4'-COOH)]WL[dOrn][hTyr]))
